Test system: patients with prior myocardial infarction (CARE study)
Test: CARE: association of SNPs with pravastatin treatment in cardiovascular events prevention (logistic regression, odds ratio pravastatin vs placebo by genotype; Table 8)
Assay type: in vivo, human
Settings: for Any Report of Stroke Prior to or During CARE, n/total (%) / Cardiovascular Mortality, n/total (%) / Fatal Atherosclerotic Cardiovascular Disease, n/total (%) / Fatal Coronary Heart Disease, n/total (%) / Fatal/Non-fatal Atherosclerotic CV Disease, n/total (%) / Total Coronary Heart Disease Events, n/total (%) / Total Mortality, n/total (%) / Hosp. for Cardiovascular Disease, n/total (%) / Total Cardiovascular Disease Events, n/total (%): Prava arm; for Odds ratio pravastatin vs placebo: TGFB1 hCV8708473, All Patients
Text: In order to identify genetic markers associated with acute coronary events (e.g. MI, stroke, unstable angina, congestive heart failure, etc.) or response to statin treatment for the prevention of coronary events, samples from the Cholesterol and Recurrent Events (CARE) study (a randomized multicentral double-blinded trial on secondary prevention of acute coronary events with pravastatin) (Sacks et al., 1991, Am. J. Cardiol. 68: 1436-1446) were genotyped. A well-documented myocardial infarction (MI) was one of the enrollment criteria for entry into the CARE study. Patients were enrolled in the CARE trial from 80 participating study centers. […] Patients were randomized to receive either 40 mg of pravastatin once daily or a matching placebo. The primary endpoint of the trial was death from coronary heart disease and the median duration of follow-up was 5.0 years (range, 4.0 to 6.2 years). […] Secondary endpoints of other related cardiovascular or metabolic disease events, and changes in clinical variables were also recorded in pravastatin-treated and placebo groups. All individuals included in the study had signed a written informed consent form and the study protocol was approved by the respective Institutional Review Boards (IRBs).
For genotyping SNPs in CARE patient samples, DNA was extracted from blood samples using conventional DNA extraction methods such as the QIA-amp kit from Qiagen. Genotypes were obtained on an ABI PRISM® 7900HT Sequence Detection PCR system (Applied Biosystems, Foster City, Calif.) by kinetic allele-specific PCR, similar to the method described by Germer et al. (Germer S., Holland M. J., Higuchi R. 2000, Genome Res. 10: 258-266).
Statistical analysis for association of SNPs with pravastatin treatment in cardiovascular events prevention (Table 8) was carried out using an overall logistic regression model that included an intercept, a parameter for the effect of a genotype containing two rare alleles versus a genotype containing no rare alleles, a parameter for the effect of a genotype containing one rare allele versus a genotype containing no rare alleles, a parameter for the effect of use of pravastatin versus the use of placebo, and parameters for the interaction effects between SNP genotypes and pravastatin use. The test of the overall model is a chi-square test with two degrees of freedom for analyses containing all three genotypes, and one degree of freedom for analyses containing two genotypes.
Effect sizes were estimated through odds ratios (pravastatin group versus placebo) for carriers of each genotype (groups of 0, 1, and 2 minor allele carriers). The effect was considered to be significant if p-value for testing whether any of the interactions between SNP genotypes and pravastatin use were <0.05. […] Odds ratios less than one indicate that the specific SNP allele has a protective effect and odds ratios greater than one indicate that the specific SNP allele has an adverse effect.

[1] = TGFB1 hCV8708473, All Patients, 1 Rare Allele
[2] = TGFB1 hCV8708473, All Patients, 2 Rare Alleles
[3] = TGFB1 hCV22272997, All Patients, 0 Rare Alleles
[4] = TGFB1 hCV22272997, All Patients, 1 Rare Allele
[5] = TGFB1 hCV22272997, All Patients, 2 Rare Alleles
[6] = TLR5 hCV15871020, All Patients, 0 Rare Alleles
[7] = TLR5 hCV15871020, All Patients, 1 Rare Allele

`CC[C@H](C)C(=O)O[C@H]1C[C@H](O)C=C2C=C[C@H](C)[C@H](CC[C@@H](O)C[C@@H](O)CC(=O)O)[C@H]21` [pravastatin] was tested, and the “Any Report of Stroke Prior to or During CARE, n/total (%)” value [1] was “(3.8%)”, the “Cardiovascular Mortality, n/total (%)” value [1] was “(1.7%)” and the “Fatal Atherosclerotic Cardiovascular Disease, n/total (%)” value [1] was “(1.7%)”. For the same molecule, the “Fatal Coronary Heart Disease, n/total (%)” value [1] was “(1.2%)”, the “Fatal/Non-fatal Atherosclerotic CV Disease, n/total (%)” value [1] was “(27.9%)” and the “Total Coronary Heart Disease Events, n/total (%)” value [1] was “(23.9%)”. The “Total Mortality, n/total (%)” value [1] was “(3.8%)”, the “Any Report of Stroke Prior to or During CARE, n/total (%)” value [2] was “(3.7%)” and the “Cardiovascular Mortality, n/total (%)” value [2] was “(3.1%)”. The “Fatal Atherosclerotic Cardiovascular Disease, n/total (%)” value [2] was “(3.1%)”, the “Fatal Coronary Heart Disease, n/total (%)” value [2] was “(2.5%)” and the “Fatal/Non-fatal Atherosclerotic CV Disease, n/total (%)” value [2] was “(38.3%)”. The “Total Coronary Heart Disease Events, n/total (%)” value [2] was “(37.0%)”, the “Total Mortality, n/total (%)” value [2] was “(4.9%)” and the “Odds ratio pravastatin vs placebo” value (Any Report of Stroke Prior to or During CARE, 0 rare alleles) was 1.35. The “Odds ratio pravastatin vs placebo” value (Any Report of Stroke Prior to or During CARE, 1 rare allele) was 0.68, the “Odds ratio pravastatin vs placebo” value (Any Report of Stroke Prior to or During CARE, 2 rare alleles) was 0.38 and the “Odds ratio pravastatin vs placebo” value (Cardiovascular Mortality, 0 rare alleles) was 1.95. The “Odds ratio pravastatin vs placebo” value (Cardiovascular Mortality, 1 rare allele) was 0.30, the “Odds ratio pravastatin vs placebo” value (Cardiovascular Mortality, 2 rare alleles) was 0.48 and the “Odds ratio pravastatin vs placebo” value (Fatal Atherosclerotic Cardiovascular Disease, 0 rare alleles) was 1.90. The “Odds ratio pravastatin vs placebo” value (Fatal Atherosclerotic Cardiovascular Disease, 1 rare allele) was 0.30, the “Odds ratio pravastatin vs placebo” value (Fatal Atherosclerotic Cardiovascular Disease, 2 rare alleles) was 0.48 and the “Odds ratio pravastatin vs placebo” value (Fatal Coronary Heart Disease, 0 rare alleles) was 1.79. For the same molecule, the “Odds ratio pravastatin vs placebo” value (Fatal Coronary Heart Disease, 1 rare allele) was 0.26, the “Odds ratio pravastatin vs placebo” value (Fatal Coronary Heart Disease, 2 rare alleles) was 0.49 and the “Odds ratio pravastatin vs placebo” value (Fatal/Non-fatal Atherosclerotic CV Disease, 0 rare alleles) was 0.94. For the same molecule, the “Odds ratio pravastatin vs placebo” value (Fatal/Non-fatal Atherosclerotic CV Disease, 1 rare allele) was 0.59, the “Odds ratio pravastatin vs placebo” value (Fatal/Non-fatal Atherosclerotic CV Disease, 2 rare alleles) was 0.81 and the “Odds ratio pravastatin vs placebo” value (Total Coronary Heart Disease Events, 0 rare alleles) was 0.91. For the same molecule, the “Odds ratio pravastatin vs placebo” value (Total Coronary Heart Disease Events, 1 rare allele) was 0.58, the “Odds ratio pravastatin vs placebo” value (Total Coronary Heart Disease Events, 2 rare alleles) was 1.00 and the “Odds ratio pravastatin vs placebo” value (Total Mortality, 0 rare alleles) was 1.50. The “Odds ratio pravastatin vs placebo” value (Total Mortality, 1 rare allele) was 0.48, the “Odds ratio pravastatin vs placebo” value (Total Mortality, 2 rare alleles) was 0.65 and the “Cardiovascular Mortality, n/total (%)” value [3] was “(5.6%)”. The “Fatal Atherosclerotic Cardiovascular Disease, n/total (%)” value [3] was “(5.6%)”, the “Fatal Coronary Heart Disease, n/total (%)” value [3] was “(5.2%)” and the “Total Coronary Heart Disease Events, n/total (%)” value [3] was “(32.5%)”. The “Total Mortality, n/total (%)” value [3] was “(7.4%)”, the “Cardiovascular Mortality, n/total (%)” value [4] was “(2.5%)” and the “Fatal Atherosclerotic Cardiovascular Disease, n/total (%)” value [4] was “(2.4%)”. The “Fatal Coronary Heart Disease, n/total (%)” value [4] was “(2.0%)”, the “Total Coronary Heart Disease Events, n/total (%)” value [4] was “(25.0%)” and the “Total Mortality, n/total (%)” value [4] was “(4.6%)”. For the same molecule, the “Cardiovascular Mortality, n/total (%)” value [5] was “(2.5%)”, the “Fatal Atherosclerotic Cardiovascular Disease, n/total (%)” value [5] was “(2.5%)” and the “Fatal Coronary Heart Disease, n/total (%)” value [5] was “(2.0%)”. For the same molecule, the “Total Coronary Heart Disease Events, n/total (%)” value [5] was “(33.2%)”, the “Total Mortality, n/total (%)” value [5] was “(3.7%)” and the “Fatal/Non-fatal Atherosclerotic CV Disease, n/total (%)” value [6] was “(34.4%)”. The “Hosp. for Cardiovascular Disease, n/total (%)” value [6] was “(40.8%)”, the “Total Cardiovascular Disease Events, n/total (%)” value [6] was “(42.0%)” and the “Total Coronary Heart Disease Events, n/total (%)” value [6] was “(30.5%)”. For the same molecule, the “Fatal/Non-fatal Atherosclerotic CV Disease, n/total (%)” value [7] was “(32.1%)”, the “Hosp. for Cardiovascular Disease, n/total (%)” value [7] was “(40.8%)” and the “Total Cardiovascular Disease Events, n/total (%)” value [7] was “(41.8%)”. For the same molecule, the “Total Coronary Heart Disease Events, n/total (%)” value [7] was “(27.2%)”.

Reference: US9932637B2, “Genetic polymorphisms associated with cardiovascular disorders and drug response, methods of detection and uses thereof” (CELERA CORPORATION, priority 2003, dated 2018)
